Data as given in patent publication US20240216344A1, “THIAZOLIDINEDIONE ANALOGS FOR THE TREATMENT OF NAFLD AND METABOLIC DISEASES” (Cirius Therapeutics, Inc., priority 2019, published 2024).
Where two headings read alike, the source gives them in different places. Values belong to the molecule of their own block, whether it stands above or below them.

Experiments:
[1] = system: patients with NASH; conditions: cited from earlier work
[2] = system: patients with NASH; assay: Meta-analysis of 17 NASH clinical trials: change from baseline in LFTs and biomarkers by study arm, composite outcome; assay type: in vivo, human; conditions: 17 NASH clinical trials
Procedure: Meta-regressions of NASH clinical trials were performed to examine associations between biomarker and histological changes within treatment groups, and to additionally examine associations between treatment effects on biomarkers and on liver histology. Trials that met the following criteria were included: • Randomized controlled clinical trial • Paired biopsies performed at baseline and follow-up, scored using the NASH CRN system.
• Published results at baseline, follow-up, or changes from baseline for any the following liver injury markers or biomarkers: alanine aminotransferase (ALT), aspartate aminotransferase (AST), alkaline phosphatase, hemoglobin A1c (HbA1c), gamma-glutamyltransferase (GGT), insulin, cytokeratin-18 (CK-18), or Enhanced Liver Fibrosis (ELF) score. Variables selected were based on variables whose change was commonly reported in multiple studies. • Changes in histological scores for ballooning, inflammation, steatosis, and fibrosis, or the pre-determined endpoints of NASH resolution without worsening fibrosis or improvement in fibrosis with no worsening of NASH.
All results from a search of PubMed for the keywords (“nonalcoholic steatohepatitis” or “non-alcoholic steatohepatitis”) and (“clinical trial” or “randomized”) and filtered for “Clinical Trial” were reviewed. EudraCT and ClinicalTrials.gov were searched for the keyword “nonalcoholic steatohepatitis” with results further filtered for phase 2 or 3, interventional, terminated or completed trials. These three sources returned 265 (PubMed), 153 (ClinicalTrials.gov), and 56 (EudraCT) results, which were each individually reviewed for inclusion in the analysis. Data extracted by one analyst from each source that included means and SDs at baseline, end of study, and changes from baseline to end of study for continuous variables were verified and corrected by a second analyst. Where SDs were not available, any provided estimate of variation was used to derive the SD where possible; a plot-digitizer program was used where data were presented in figures only. Data for dichotomous endpoints were extracted as the number of subjects with the event and corresponding sample size.
Random effects weighted least squares meta-regressions with inverse variance weighting were used to examine the association of changes in ALT, AST, CK-18, HbA1c, fasting insulin levels, ELF, alkaline phosphatase and GGT with biopsy outcomes. CK-18[M30] was measured in all studies except EMMINENCE where CK-18[M651 was reported. These associations were assessed at an individual cohort level (within treatment group), as well as based on the treatment effect. Percent change from baseline in liver injury makers and biomarkers was used as the predictor when examining the associations in the individual cohorts with outcomes while the treatment ratio, the ratio of active to placebo with respect to the relative changes from baseline, was used as the predictor when assessing the association with the treatment effect on outcomes. Standardized mean changes (mean/SD) or standardized mean treatment differences (mean difference/pooled SD) were used for continuous outcomes and Freeman-Tukey double arcsine transformed proportions or log odds ratios were used for dichotomous outcomes. Meta-regression results were computed using the metafor package available in R. P-values <0.05 were considered statistically significant.
From the meta-regression results, ranks for the association with responses and treatment effects for each histologic outcome (changes in ballooning, inflammation, steatosis, and fibrosis; NASH resolution without worsening of fibrosis, and fibrosis improvement without worsening of NAS) were assigned across seven biomarkers (AST, GGT, HbA1c, insulin, CK-18, ELF, and alkaline phosphatase) for both the slope and the mediator p-value (ranks 1-7, with 7 assigned to the biomarker with the greatest slope or lowest p-value). An average rank across all outcomes was then assigned to each biomarker. […]

[3] = system: patients with NASH; conditions: cited from earlier work; remark: listed apart in the source
[4] = Exposure of parent and metabolite; bioavailability of potassium salt vs free acid; conditions: in vivo
[5] = target: T1, MPC (Homo sapiens, UniProt O95563+Q9Y5U8); assay: Relative binding affinity for the MPC (FIG. 8)
T1 sequence (Q9Y5U8 1-109): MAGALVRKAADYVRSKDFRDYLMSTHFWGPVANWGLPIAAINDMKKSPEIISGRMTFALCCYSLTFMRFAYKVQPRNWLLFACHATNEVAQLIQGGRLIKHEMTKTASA
T1 sequence (O95563 1-127): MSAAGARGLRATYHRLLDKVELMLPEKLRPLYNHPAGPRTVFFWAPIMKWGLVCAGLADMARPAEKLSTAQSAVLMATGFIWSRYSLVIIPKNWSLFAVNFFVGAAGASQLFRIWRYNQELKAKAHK

[6] = target: T2, PPARγ (Homo sapiens, UniProt P37231); assay: Relative binding affinity for PPARγ (FIG. 7)
T2 sequence (P37231 1-505): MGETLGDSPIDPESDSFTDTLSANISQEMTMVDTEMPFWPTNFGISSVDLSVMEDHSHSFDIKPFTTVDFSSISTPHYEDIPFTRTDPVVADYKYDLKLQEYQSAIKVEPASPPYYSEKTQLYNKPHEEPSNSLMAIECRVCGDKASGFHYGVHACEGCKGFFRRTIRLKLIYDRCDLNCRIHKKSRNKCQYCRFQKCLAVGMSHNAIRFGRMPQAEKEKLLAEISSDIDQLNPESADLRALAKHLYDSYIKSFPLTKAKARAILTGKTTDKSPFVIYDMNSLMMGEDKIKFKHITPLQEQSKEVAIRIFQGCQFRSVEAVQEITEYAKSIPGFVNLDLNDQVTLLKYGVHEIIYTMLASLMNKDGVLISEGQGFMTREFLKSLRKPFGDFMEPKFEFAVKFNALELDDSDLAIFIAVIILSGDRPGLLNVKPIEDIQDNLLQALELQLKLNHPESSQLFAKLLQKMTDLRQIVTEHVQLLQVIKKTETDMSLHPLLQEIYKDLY

[7] = ARREST, 400 mg, follow-up 12 months
[8] = ARREST, 600 mg, follow-up 12 months
[9] = CENTAUR, 150 mg, follow-up 12 months
[10] = GOLDEN, 80 mg, follow-up 12 months
[11] = GOLDEN, 120 mg, follow-up 12 months
[12] = GOLDEN trial, Elafibranor 120 mg
[13] = ENCORE-HF trial, Emricasan 5 mg
[14] = ENCORE-HF trial, Emricasan 50 mg
[15] = MADRIGAL, 80 mg, follow-up 9 months
[16] = MADRIGAL trial, Resmetirom 80 mg
[17] = GEORGESCU, 20 mg, follow-up 20 months
[18] = GEORGESCU trial, Telmisartan 20 mg
[19] = LEUSCHNER, 23-28 mg/kg/day, follow-up 18 months
[20] = LEUSCHNER trial, UDCA 23-28 mg/kg/day
[21] = GEORGESCU, 80 mg, follow-up 20 months
[22] = GEORGESCU trial, Valsartan 80 mg
[23] = PIVENS, Vitamin E arm, follow-up 22 months

Molecule: CCCCCCCCCCCCCCCCCCCC(=O)N[C@H]1CC[C@@]2(C)[C@@H](C1)C[C@@H](O)[C@@H]1[C@@H]2C[C@H](O)[C@]2(C)[C@@H]([C@H](C)CCC(=O)O)CC[C@@H]12 [Aramachol, reference compound]
% Change from Baseline ALT [1, 7]: −18.06% | % Change from Baseline HbA1c [1, 7]: −0.62% | % Change from Baseline ALT [1, 8]: −32.02% | % Change from Baseline HbA1c [1, 8]: −1.79% | treatment effect on the surrogate endpoint (weighted average of changes in AST, CK-18, HbA1c) [2]: largest treatment effects | Fibrosis Improvement ([3]; ARREST trial, Aramchol 400 mg): 17/80 | NASH Resolution ([3]; ARREST trial, Aramchol 400 mg): 6/80 | Fibrosis Improvement ([3]; ARREST trial, Aramchol 600 mg): 23/78 | NASH Resolution ([3]; ARREST trial, Aramchol 600 mg): 13/78

Molecule: CCCCOCCOc1ccc(-c2ccc3c(c2)/C=C(/C(=O)Nc2ccc([S@@+]([O-])Cc4cncn4CCC)cc2)CCCN3CC(C)C)cc1 [Cenicriviroc]
% Change from Baseline ALT [1, 9]: 11.23% | % Change from Baseline AST [1, 9]: 11.67% | % Change from Baseline Alk Phos [1, 9]: 1.24% | % Change from Baseline CK-18 [1, 9]: −12.34% | % Change from Baseline GGT [1, 9]: 2.68% | % Change from Baseline HbA1c [1, 9]: −0.75% | % Change from Baseline Insulin [1, 9]: 2.14% | Fibrosis Improvement ([3]; CENTAUR trial, Cenicriviroc 150 mg): 29/145

Molecule: CSc1ccc(C(=O)/C=C/c2cc(C)c(OC(C)(C)C(=O)O)c(C)c2)cc1 [Elafibranor]
% Change from Baseline ALT [1, 10]: −9.72% | % Change from Baseline AST [1, 10]: −16.87% | % Change from Baseline Alk Phos [1, 10]: −25.87% | % Change from Baseline GGT [1, 10]: −34.54% | % Change from Baseline ALT [1, 11]: −19.75% | % Change from Baseline AST [1, 11]: −30.22% | % Change from Baseline Alk Phos [1, 11]: −26.41% | % Change from Baseline GGT [1, 11]: −41.68% | NASH Resolution ([3]; GOLDEN trial, Elafibranor 80 mg): 12/93 | Change from Baseline, mean: Ballooning [3, 12]: −0.07 | Change from Baseline, mean: Fibrosis [3, 12]: −0.07 | Change from Baseline, mean: Inflammation [3, 12]: −0.32 | Change from Baseline, mean: Steatosis [3, 12]: 0.02 | NASH Resolution [3, 12]: 17/89

Molecule: C[C@H](NC(=O)C(=O)Nc1ccccc1C(C)(C)C)C(=O)N[C@@H](CC(=O)O)C(=O)COc1c(F)c(F)cc(F)c1F [Emricasan]
% Change from Baseline ALT ([1]; ENCORE-HF, 5 mg): −35.28% | % Change from Baseline AST ([1]; ENCORE-HF, 5 mg): −18.47% | % Change from Baseline CK-18 ([1]; ENCORE-HF, 5 mg): −36.86% | % Change from Baseline ALT ([1]; ENCORE-HF, 50 mg): −45.17% | % Change from Baseline AST ([1]; ENCORE-HF, 50 mg): −19.83% | % Change from Baseline CK-18 ([1]; ENCORE-HF, 50 mg): −45.07% | Change from Baseline, mean: Ballooning [3, 13]: 0.04 | Change from Baseline, mean: Fibrosis [3, 13]: 0.41 | Change from Baseline, mean: Inflammation [3, 13]: −0.11 | Change from Baseline, mean: Steatosis [3, 13]: −0.20 | Fibrosis Improvement [3, 13]: 12/107 | NASH Resolution [3, 13]: 4/107 | Change from Baseline, mean: Ballooning [3, 14]: 0.13 | Change from Baseline, mean: Fibrosis [3, 14]: 0.36 | Change from Baseline, mean: Inflammation [3, 14]: 0.09 | Change from Baseline, mean: Steatosis [3, 14]: −0.27 | Fibrosis Improvement [3, 14]: 13/106 | NASH Resolution [3, 14]: 7/106

Molecule: CC(C)c1cc(Oc2c(Cl)cc(-n3nc(C#N)c(=O)[nH]c3=O)cc2Cl)n[nH]c1=O [Resmetirom]
% Change from Baseline ALT [1, 15]: −30.80% | % Change from Baseline AST [1, 15]: −21.08% | % Change from Baseline Alk Phos [1, 15]: 7.85% | % Change from Baseline CK-18 [1, 15]: −35.15% | % Change from Baseline ELF [1, 15]: −7.17% | % Change from Baseline GGT [1, 15]: −18.76% | % Change from Baseline HbA1c [1, 15]: 0.63% | Fibrosis Improvement [3, 16]: 21/73 | NASH Resolution [3, 16]: 18/73

Molecule: CCCc1nc2c(C)cc(-c3nc4ccccc4n3C)cc2n1Cc1ccc(-c2ccccc2C(=O)O)cc1 [Telmisartan]
% Change from Baseline ALT [1, 17]: −30.29% | % Change from Baseline AST [1, 17]: −34.64% | % Change from Baseline GGT [1, 17]: −2.83% | Change from Baseline, mean: Ballooning [3, 18]: −0.58 | Change from Baseline, mean: Fibrosis [3, 18]: −0.75 | Change from Baseline, mean: Inflammation [3, 18]: −0.36 | Change from Baseline, mean: Steatosis [3, 18]: −0.50

Molecule: C[C@H](CCC(=O)O)[C@H]1CC[C@H]2[C@@H]3[C@@H](O)C[C@@H]4C[C@H](O)CC[C@]4(C)[C@H]3CC[C@]12C [UDCA]
% Change from Baseline ALT [1, 19]: −40.55% | % Change from Baseline AST [1, 19]: −27.95% | % Change from Baseline Alk Phos [1, 19]: −6.376% | % Change from Baseline GGT [1, 19]: −59.94% | Change from Baseline, mean: Ballooning [3, 20]: −0.16 | Change from Baseline, mean: Inflammation [3, 20]: −0.51 | Change from Baseline, mean: Steatosis [3, 20]: −0.55

Molecule: CCCCC(=O)N(Cc1ccc(-c2ccccc2-c2nnn[nH]2)cc1)[C@H](C(=O)O)C(C)C [Valsartan]
% Change from Baseline ALT [1, 21]: −23.22% | % Change from Baseline AST [1, 21]: −18.82% | % Change from Baseline GGT [1, 21]: −20.60% | Change from Baseline, mean: Ballooning [3, 22]: −0.11 | Change from Baseline, mean: Fibrosis [3, 22]: −0.31 | Change from Baseline, mean: Inflammation [3, 22]: 0.08 | Change from Baseline, mean: Steatosis [3, 22]: −0.34

share of the combined exposure [4]: more than 90% | binding to the MPC [5]: maintain, and in some cases improve | reduction in binding affinity for PPARγ compared to pioglitazone [6]: more than fifty-fold
Molecule: COc1cccc(C(O)COc2ccc(CC3SC(=O)NC3=O)cc2)c1 (stereo not drawn) [primary metabolite of MSDC-0602]

Molecule: CC(C)c1cc(Oc2c(Cl)cc(-n3nc(C#N)c(=O)[nH]c3=O)cc2Cl)n[nH]c1=O [resmetiron, reference compound]
treatment effect on the surrogate endpoint (weighted average of changes in AST, CK-18, HbA1c) [2]: largest treatment effects

Molecule: Vitamin E
% Change from Baseline ALT [1, 23]: −43.02% | % Change from Baseline AST [1, 23]: −36.10% | % Change from Baseline Alk Phos [1, 23]: −12.08% | % Change from Baseline GGT [1, 23]: −25.00% | % Change from Baseline Insulin [1, 23]: 2.73% | Change from Baseline, mean: Ballooning ([3]; PIVENS trial, Vitamin E): −0.30 | Change from Baseline, mean: Fibrosis ([3]; PIVENS trial, Vitamin E): −0.30 | Change from Baseline, mean: Inflammation ([3]; PIVENS trial, Vitamin E): −0.60 | Change from Baseline, mean: Steatosis ([3]; PIVENS trial, Vitamin E): −0.70 | NASH Resolution ([3]; PIVENS trial, Vitamin E): 30/84
